# In patent US6184231A, “3-substituted-4-arylquinolin-2-one derivatives as potassium channel modulators” (priority 1999, dated 2001):
# What was measured:
# [1] = system: cloned mammalian (mSlo or hSlo) BK channels; assay: BK-mediated outward current, two-electrode voltage clamp in Xenopus oocytes; assay type: cell-based; details: at 20 μM; percent increase over BK current in controls; IBTX-sensitive current; at least 5 oocytes
# Experimental: The ability of compounds described in the present invention to open BK channels and increase whole-cell outward (K^+) BK-mediated currents was assessed under voltage-clamp conditions by determining their ability to increase cloned mammalian (mSlo or hSlo) BK --mediated outward current heterologously expressed in Xenopus oocytes [Butler, A., et al., Science, 261: 221-224 (1993); and Dworetzky, S. I., et al., Mol. Brain Res., 27: 189-193 (1994)]. The two BK constructs employed represent nearly structurally identical homologous proteins, and have proven to be pharmacologically identical in our tests. To isolate BK current from native (background, non-BK) current, the specific and potent BK channel-blocking toxin iberiotoxin (IBTX) [Galvez, A., et al., J. Biol. Chem., 265: 11083-11090 (1990)] was employed at a supramaximal concentration (50 nM). The relative contribution of BK channels current to total outward current was determined by subtraction of the current remaining in the presence of IBTX (non-BK current) from the current profiles obtained in all other experimental conditions (control, drug, and wash). […] All compounds were tested in at least 5 oocytes and are reported at the single concentration of 20 μM; the effect of the selected compounds of Formula I on BK current was expressed as the percent of control IBTX-sensitive current and is listed in Table I. Recordings were accomplished using standard two-electrode voltage clamp techniques [Stuhmer, W., et al., Methods in Enzymology, Vol. 207: 319-339 (1992)]; voltage-clamp protocols consisted of 500-750 ms duration step depolarizations from a holding potential of -60 mV to +140 mV in 20 mV steps. The experimental media (modified Barth's solution) consisted of (in mM): NaCl (88), NaHCO3 (2.4), KCl (1.0), HEPES (10), MgSO4 (0.82), Ca(NO3)2 (0.33), CaCl2 (0.41); pH 7.5.
# [2] = system: intracavernous pressure (ICP/BP) response; assay: in vivo model on erectile function, cavernous nerve stimulation; design: species or system rat; details: 0.1-1.0 mg/kg i.v., anesthetized rats
# Description: The in vivo model on erectile function is described fully in the scientific literature [Rehman, J., Chenven, E., Brink, P. Peterson, B., Wolcott, B., Wen, Y. P., Melman, A., Christ, G.: Diminished neurogenic but not pharmacological erections in the 2- to 3-month experimentally diabetic F-344 rat. Am. J. Physiol. 272: H1960-H1971, (1997)]. Briefly, rats (250-600 g) were anesthetized using sodium pentobarbital, the abdomen opened and the cavernous nerve identified. A pressure catheter was placed in the right corpus cavernosum (crus) to measure intracavernous pressure (ICP). A second catheter was introduced into the carotid artery to measure blood pressure. Test compound (0.1, 0.3 and 1 mg/kg iV.) or vehicle (PEG 400) was given via a catheter placed into the jugular vein.
# Control intracavernous pressure responses were elicited by electrically stimulating the cavernous nerve via bipolar stimulating electrodes (20 Hz, 0.22 ms pulse width). Stimulus amplitude (0.2-20 mA) was adjusted to produce a submaximal intracavernous pressure response (typically 0.2 or 0.5 mA). A series of control intracavernous pressure responses were then obtained using a constant stimulus amplitude. Test compound or vehicle was then administered (200 μl i.v bolus) and the cavernous nerve was restimulated to evoke a cavernous pressure response at various times post-drug administration. […]
# cortical infarct volume = assay: permanent focal ischemia, middle cerebral artery occlusion (MCAO) model; assay type: in vivo, spontaneously hypertensive rat; details: 0.003 mg/kg i.v. single bolus 2 hours after MCAO; infarct measured 24 hours after MCAO; vs vehicle-treated control
# Description: To determine the ability of these compounds to reduce cell loss resulting from neuronal ischemia, a standard rodent model of permanent focal ischemia, involving occlusion of the middle cerebral artery in the spontaneously hypertensive rat (middle cerebral artery occlusion (MCAO) model) was employed [Tamura, A., et al., Journal of Cerebral Blood Flow and Metabolism, Volume 1, 53-60, (1981)].
# Selected compounds have been evaluated in the focal stroke model involving permanent MCAO in the spontaneously hypertensive rat. This procedure results in a reliably large neocortical infarct volume that is measured by means of vital dye exclusion in serial slices through the brain 24 hours after MCAO. In the present test, compounds were administered using an intravenous route of administration at 2 hours after occlusion.
Structure (SMILES),BK Current [1],ICP/BP ratio elicited by sub-maximal stimulation of the cavernous nerve [2],reduction of cortical infarct volume (cortical infarct volume)
"COc1ccc(Cl)cc1-c1c(C=O)c(=O)[nH]c2ccc(C(F)(F)F)cc12 [Example 4, 4-(5-Chloro-2-methoxyphenyl)-1,2-dihydro-2-oxo-6-(trifluoromethyl)-3-quinolinecarboxaldehyde]",+ (+ = 100-200%),–,–
"COc1ccc(Cl)cc1-c1c(C=NO)c(=O)[nH]c2ccc(C(F)(F)F)cc12 [Example 39, 4-(5-Chloro-2-methoxyphenyl)-1,2-dihydro-2-oxo-6-(trifluoromethyl)-3-quinolinecarboxaldehyde oxime]",++ (++ = >200%),–,–
"COc1ccc(Cl)cc1-c1c(CCCO)c(=O)[nH]c2ccc(C(F)(F)F)cc12 [Example 8, 4-(5-Chloro-2-methoxyphenyl)-3-(3-hydroxypropyl)-6-(trifluoromethyl)-2(1H)-quinolinone]",++ (++ = >200%),–,–
"O=c1[nH]c2ccc(C(F)(F)F)cc2c(-c2cc(Cl)ccc2O)c1CCO [Example 20, 4-(5-Chloro-2-hydroxyphenyl)-3-(2-hydroxyethyl)-6-(trifluoromethyl)-2(1H)-quinolinone]",++ (++ = >200%),significant increase,–
"COc1ccc(Cl)cc1-c1c(CO)c(=O)[nH]c2cc(C(F)(F)F)ccc12 [Example 3, 4-(5-Chloro-2-methoxyphenyl)-3-(hydroxymethyl)-7-(trifluoromethyl)-2(1H)-quinolinone]",+ (+ = 100-200%),–,–
"Nc1ccc(-c2c(-c3cc(Cl)ccc3O)c3cc(C(F)(F)F)ccc3[nH]c2=O)cc1 [Example 32, 4-(5-Chloro-2-hydroxyphenyl)-3-(4-aminophenyl)-6-(trifluoromethyl)-2(1H)-quinolinone]",++ (++ = >200%),–,–
"O=c1[nH]c2ccc(C(F)(F)F)cc2c(-c2cc(Cl)ccc2O)c1Cc1ccc(O)cc1 [Example 30, 4-(5-Chloro-2-hydroxyphenyl)-3-[(4-hydroxyphenyl)methyl]-6-(trifluoromethyl)-2(1H)-quinolinone]",++ (++ = >200%),–,–
"Cc1c(-c2cc(Cl)ccc2O)c2cc(C(F)(F)F)ccc2[nH]c1=O [Example 34, 4-(5-Chloro-2-hydroxyphenyl)-3-methyl-6-(trifluoromethyl)-2(1H)-quinolinone]",++ (++ = >200%),–,–
"COc1ccc(Cl)cc1-c1c(CCO)c(=O)[nH]c2ccc(C(F)(F)F)cc12 [Example 21, 4-(5-Chloro-2-methoxyphenyl)-3-(2-hydroxyethyl)-6-trifluoromethyl-2(1H)-quinolinone]",++ (++ = >200%),–,about 25%
"O=c1[nH]c2ccc(C(F)(F)F)cc2c(-c2cc(Cl)ccc2O)c1/C=C(\F)CO [Example 17, (Z)-4-(5-Chloro-2-hydroxyphenyl)-3-(2-fluoro-3-hydroxy-1-propenyl)-6-(trifluoromethyl)-2(1H)-quinolinone]",+ (+ = 100-200%),–,–
"O=c1[nH]c2ccc(C(F)(F)F)cc2c(-c2cc(Cl)ccc2O)c1CO [Example 9, 4-(5-Chloro-2-hydroxyphenyl)-3-(hydroxymethyl)-6-(trifluoromethyl)-2(1H)-quinolinone]",++ (++ = >200%),–,–
"COc1ccc(Cl)cc1-c1c(/C=C(/F)CO)c(=O)[nH]c2ccc(C(F)(F)F)cc12 [Example 18, (E)-4-(5-Chloro-2-methoxyphenyl)-3-(2-fluoro-3-hydroxy-1-propenyl)-6-(trifluoromethyl)-2(1H)-quinolinone]",+ (+ = 100-200%),–,–
